Source: patent US20190071416A1, “COMPOUNDS FOR TREATMENT OF CANCER AND EPIGENETICS” (Agency For Science, Technology and Research, priority 2015, published 2019)

The molecules below were run against T1, SMYD3 (Homo sapiens, UniProt Q9H7B4) (assay: SMYD3 biochemical assay (MTase-Glo, MAP3K2 peptide substrate)). Conditions: Table 3; MTase assay, MAP3K2 peptide substrate; read-out: IC50.
T1 sequence (Q9H7B4 1-428): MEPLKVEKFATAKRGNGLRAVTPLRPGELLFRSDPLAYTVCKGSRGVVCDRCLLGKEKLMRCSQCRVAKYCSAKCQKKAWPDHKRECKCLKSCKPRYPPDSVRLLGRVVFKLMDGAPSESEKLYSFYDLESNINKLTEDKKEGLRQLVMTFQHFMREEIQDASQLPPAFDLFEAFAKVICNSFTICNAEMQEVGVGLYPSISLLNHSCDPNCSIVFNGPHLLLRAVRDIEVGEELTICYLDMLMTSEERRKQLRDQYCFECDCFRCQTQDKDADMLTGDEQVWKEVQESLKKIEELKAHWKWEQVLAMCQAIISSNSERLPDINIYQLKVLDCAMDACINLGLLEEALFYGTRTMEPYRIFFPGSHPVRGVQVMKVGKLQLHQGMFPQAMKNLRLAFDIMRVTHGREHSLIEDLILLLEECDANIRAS
Experimental: A SMYD3 enzymatic assay was developed using Promega's Methyltransferase-Glo™ reagents. In the assay, SMYD3 catalyzes the methylation of the MAP3K2 peptide substrate by transferring a methyl group from SAM to MAP3K2 peptide and further converts the SAM to SAH. The SMYD3 methyltransferase activity is measured based on the amount of SAH produced from the reaction through the use of coupling enzymes that convert the SAH to ATP. The MTase-Glo detection solution then catalyzes the formation of light from ATP.
A final concentration of 1.0 μM and 10 μM SAM and MAP3K2 peptide were added and further incubated for 30 min at room temperature before adding the MTase Glo and detection reagent. Reaction signals were detected using microplate readers on luminescent mode (Safire Tecan). The IC50 was determined by non-linear regression, using GraphPad Prism version, 5.03.
`CCCOC(=O)N1CCN(C(=O)c2ccc3c(Cl)c4c(nc3c2)CC(c2ccccn2)CC4)CC1` (single isomer, unassigned) [A053 (Ent-1), Propyl (R/S)-4-(9-chloro-6-(pyridin-2-yl)-5,6,7,8-tetrahydroacridine-3-carbonyl)piperazine-1-carboxylate] was tested, and the IC50 was 0.12 µM. `CCCOC(=O)N1CCN(C(=O)c2ccc3c(Cl)c4c(nc3c2)CC(c2ccccn2)CC4)CC1` (single isomer, unassigned) [A053 (Ent-2), Propyl (R/S)-4-(9-chloro-6-(pyridin-2-yl)-5,6,7,8-tetrahydroacridine-3-carbonyl)piperazine-1-carboxylate] was tested, and the IC50 was 0.24 µM. In the case of `CCCOC(=O)N1CCN(C(=O)c2ccc3c(Cl)c4c(nc3c2)CCCC4)CC1` [A001, Propyl 4-(9-chloro-5,6,7,8-tetrahydroacridine-3-carbonyl)piperazine-1-carboxylate], the IC50 is reported as 0.4 µM. For `C=CCOC(=O)N1CCN(C(=O)c2ccc3c(Cl)c4c(nc3c2)CCCC4)CC1` [A002, Allyl 4-(9-chloro-5,6,7,8-tetrahydroacridine-3-carbonyl)piperazine-a1-carboxylate], the IC50 was 1 µM. With `CCCCC(=O)N1CCN(C(=O)c2ccc3c(Cl)c4c(nc3c2)CCCC4)CC1` [A003, 1-(4-(9-Chloro-5,6,7,8-tetrahydroacridine-3-carbonyl)piperazin-1-yl)pentan-1-one] the IC50 was 1.52 µM. `CCCOC(=O)N1CC2CCC(C1)N2C(=O)c1ccc2c(Cl)c3c(nc2c1)CCCC3` [A004, Propyl 8-(9-chloro-5,6,7,8-tetrahydroacridine-3-carbonyl)-3,8-diazabicyclo[3.2.1]octane-3-carboxylate] was tested, and the IC50 was 0.35 µM. `CCCOC(=O)N1CC2CCC1CN2C(=O)c1ccc2c(Cl)c3c(nc2c1)CCCC3` (stereo not shown) [A005, Propyl 5-(9-chloro-5,6,7,8-tetrahydroacridine-3-carbonyl)-2,5-diazabicyclo[2.2.2]octane-2-carboxylate] was tested, and the IC50 was 4.5 µM. In the case of `O=C(c1ccc2c(Cl)c3c(nc2c1)CCCC3)N1CCN(C(=O)c2cc(C3CC3)on2)CC1` [A006, (9-Chloro-5,6,7,8-tetrahydroacridin-3-yl)(4-(5-cyclopropylisoxazole-3-carbonyl)piperazin-1-yl)methanone], the IC50 is reported as 6.7 µM. With `CC(C)Cc1cc(C(=O)N2CCN(C(=O)c3ccc4c(Cl)c5c(nc4c3)CCCC5)CC2)no1` [A007, (9-Chloro-5,6,7,8-tetrahydroacridin-3-yl)(4-(5-isobutylisoxazole-3-carbonyl)piperazin-1-yl)methanone] the IC50 was 6.9 µM. `CCCOC(=O)N1CCN(C(=O)c2ccc3c(Cl)c4c(nc3c2)CCC(C)C4)CC1` (stereo not shown) [A008, Propyl 4-(9-chloro-7-methyl-5,6,7,8-tetrahydroacridine-3-carbonyl)piperazine-1-carboxylate] gave an IC50 of 1.3 µM. Molecule `CCCOC(=O)N1C2CCC1CN(C(=O)c1ccc3c(Cl)c4c(nc3c1)CCCC4)C2` [A009, Propyl 3-(9-chloro-5,6,7,8-tetrahydroacridine-3-carbonyl)-3,8-diazabicyclo[3.2.1]octane-8-carboxylate] has an IC50 of 0.36 µM. Work on `CCCOC(=O)N1CCN(C(=O)c2ccc3c(Cl)c4c(nc3c2)CCCC4)[C@@H](C)C1` [A010, Propyl (S)-4-(9-chloro-5,6,7,8-tetrahydroacridine-3-carbonyl)-3-methylpiperazine-1-carboxylate] yielded an IC50 of 0.19 µM. Work on `CCCOC(=O)N1CCN(C(=O)c2ccc3c(Cl)c4c(nc3c2)CCCC4)[C@H](C)C1` [A011, Propyl (R)-4-(9-chloro-5,6,7,8-tetrahydroacridine-3-carbonyl)-3-methylpiperazine-1-carboxylate] yielded an IC50 of 0.3 µM. In the case of `Cc1cc(C(=O)N2CCN(C(=O)c3ccc4c(Cl)c5c(nc4c3)CCCC5)CC2)no1` [A012, (9-Chloro-5,6,7,8-tetrahydroacridin-3-yl)(4-(5-methylisoxazole-3-carbonyl)piperazin-1-yl)methanone], the IC50 is reported as 1.67 µM. Work on `CCCOC(=O)N1C2CCCC1CN(C(=O)c1ccc3c(Cl)c4c(nc3c1)CCCC4)C2` [A013, Propyl 3-(9-chloro-5,6,7,8-tetrahydroacridine-3-carbonyl)-3,9-diazabicyclo[3.3.1]nonane-9-carboxylate] yielded an IC50 of 0.19 µM. `CCCOC(=O)N1CC2CC(C1)N2C(=O)c1ccc2c(Cl)c3c(nc2c1)CCCC3` [A014, Propyl 6-(9-chloro-5,6,7,8-tetrahydroacridine-3-carbonyl)-3,6-diazabicyclo[3.1.1]heptane-3-carboxylate] showed an IC50 of 1 µM. Work on `CCCOC(=O)N1CC2CCCC(C1)N2C(=O)c1ccc2c(Cl)c3c(nc2c1)CCCC3` [A015, Propyl 9-(9-chloro-5,6,7,8-tetrahydroacridine-3-carbonyl)-3,9-diazabicyclo[3.3.1]nonane-3-carboxylate] yielded an IC50 of 0.32 µM. `CCCOC(=O)N1CCN(C(=O)c2ccc3c(Cl)c4c(nc3c2)CCCC4)C(CC)C1` (stereo not shown) [A016, Propyl 4-(9-chloro-5,6,7,8-tetrahydroacridine-3-carbonyl)-3-ethylpiperazine-1-carboxylate] was tested, and the IC50 was 0.64 µM. Molecule `CCCOC(=O)N1CC(C)N(C(=O)c2ccc3c(Cl)c4c(nc3c2)CCCC4)CC1C` (stereo not shown) [A017, Propyl 4-(9-chloro-5,6,7,8-tetrahydroacridine-3-carbonyl)-2,5-dimethylpiperazine-1-carboxylate] has an IC50 of 0.29 µM. `CCCOC(=O)N1CCN(C(=O)c2ccc3c(Cl)c4c(nc3c2)CCCC4)CC1C` (stereo not shown) [A018, Propyl 4-(9-chloro-5,6,7,8-tetrahydroacridine-3-carbonyl)-2-methylpiperazine-1-carboxylate] showed an IC50 of 0.39 µM. `CCCOC(=O)N1C2CC1CN(C(=O)c1ccc3c(Cl)c4c(nc3c1)CCCC4)C2` [A019, Propyl 3-(9-chloro-5,6,7,8-tetrahydroacridine-3-carbonyl)-3,6-diazabicyclo[3.1.1]heptane-6-carboxylate] gave an IC50 of 13.1 µM. Work on `CCCOC(=O)N1C(C)CN(C(=O)c2ccc3c(Cl)c4c(nc3c2)CCCC4)CC1C` (stereo not shown) [A020, Propyl 4-(9-chloro-5,6,7,8-tetrahydroacridine-3-carbonyl)-2,6-dimethylpiperazine-1-carboxylate] yielded an IC50 of 0.35 µM. For `CC(C)COC(=O)N1CCN(C(=O)c2ccc3c(Cl)c4c(nc3c2)CCCC4)CC1` [A021, Isobutyl 4-(9-chloro-5,6,7,8-tetrahydroacridine-3-carbonyl)piperazine-1-carboxylate], the IC50 was 0.84 µM. `CCCOC(=O)N1CCN(C(=O)c2ccc3c(Cl)c4c(nc3c2)CC(C)CC4)CC1` (stereo not shown) [A022, Propyl 4-(9-chloro-6-methyl-5,6,7,8-tetrahydroacridine-3-carbonyl)piperazine-1-carboxylate] gave an IC50 of 1 µM. In the case of `CCCOC(=O)N1CCN(C(=O)c2ccc3c(Cl)c4c(nc3c2)CCCC4C)CC1` (stereo not shown) [A023, Propyl 4-(9-chloro-8-methyl-5,6,7,8-tetrahydroacridine-3-carbonyl)piperazine-1-carboxylate], the IC50 is reported as 5.2 µM. `CCCOC(=O)N1CCN(C(=O)c2ccc3c(Cl)c4c(nc3c2)CC(c2ccccc2)CC4)CC1` (stereo not shown) [A024, Propyl 4-(9-chloro-6-phenyl-5,6,7,8-tetrahydroacridine-3-carbonyl)piperazine-1-carboxylate] was tested, and the IC50 was 1.2 µM. For `CCCOC(=O)N1CCN(C(=O)c2ccc3c(Cl)c4c(nc3c2)CC(C#N)CC4)CC1` (stereo not shown) [A025, Propyl 4-(9-chloro-6-cyano-5,6,7,8-tetrahydroacridine-3-carbonyl)piperazine-1-carboxylate], the IC50 was 1.9 µM. Work on `CCCOC(=O)N1CCN(C(=O)c2ccc3c(Cl)c4c(nc3c2)CCCC4C#N)CC1` (stereo not shown) [A026, Propyl 4-(9-chloro-8-cyano-5,6,7,8-tetrahydroacridine-3-carbonyl)piperazine-1-carboxylate] yielded an IC50 of 3.2 µM. With `CCCOC(=O)N1CCN(C(=O)c2ccc3c(Cl)c4c(nc3c2)CC(c2cccnc2)CC4)CC1` (stereo not shown) [A027, Propyl 4-(9-chloro-6-(pyridin-3-yl)-5,6,7,8-tetrahydroacridine-3-carbonyl)piperazine-1-carboxylate] the IC50 was 0.4 µM. `CCCOC(=O)N1CCN(C(=O)c2ccc3c(Cl)c4c(nc3c2)CC(CN)CC4)CC1` (stereo not shown) [A028, Propyl 4-(6-(aminomethyl)-9-chloro-5,6,7,8-tetrahydroacridine-3-carbonyl)piperazine-1-carboxylate] showed an IC50 of 0.38 µM. For `CCCOC(=O)N1CCN(C(=O)c2ccc3c(Cl)c4c(nc3c2)CCC(C(=O)OC)C4)CC1` (stereo not shown) [A029, Methyl 9-chloro-6-(4-(propoxycarbonyl)piperazine-1-carbonyl)-1,2,3,4-tetrahydroacridine-2-carboxylate], the IC50 was 0.86 µM. `CCCOC(=O)N1CCN(C(=O)c2ccc3c(Cl)c4c(nc3c2)CCCC4)CC1CC` (stereo not shown) [A030, Propyl 4-(9-chloro-5,6,7,8-tetrahydroacridine-3-carbonyl)-2-ethylpiperazine-1-carboxylate] was tested, and the IC50 was 0.63 µM. Work on `CCCOC(=O)N1CCN(C(=O)c2ccc3c(Cl)c4c(nc3c2)CCCC4)C(C)C1` (stereo not shown) [A031, Propyl 4-(9-chloro-5,6,7,8-tetrahydroacridine-3-carbonyl)-3-methylpiperazine-1-carboxylate] yielded an IC50 of 0.15 µM. `CCCOC(=O)N1CCN(C(=O)c2ccc3c(Cl)c4c(nc3c2)CCCC4)CC1CO` (stereo not shown) [A032, Propyl 4-(9-chloro-5,6,7,8-tetrahydroacridine-3-carbonyl)-2-(hydroxymethyl)piperazine-1-carboxylate] showed an IC50 of 1.2 µM.
